Measured values: patent US8993557B2, “Pyridinedione carboxamide inhibitors of endothelial lipase” (Bristol-Myers Squibb Company, priority 2011, dated 2015)

Target: Endothelial lipase (EL) (Homo sapiens (Human), UniProt Q9Y5X9)
Assay: Endothelial lipase (EL) enzymatic assay with fluorescent substrate A10070 in DMPG vesicles
Assay type: biochemical
Settings: conditioned media from HT-1080 cells overexpressing endogenous EL; 20 min preincubation at 37° C.; read-out: HLE_EL_CRC IC50
Experimental: Endothelial lipase activity was measured using a fluorescent substrate, A10070, (Invitrogen, CA) doped into an artificial vesicle containing DMPG (Avanti Polar Lipids) as the excipient. Vesicles were prepared by combining 285 uL of 1 mM DMPG in a 1:1 mixture of MeOH and CHCl3 with 15 uL of 1 mM A10070 in a 1:1 mixture of MeOH and CHCl3. The mixture was dried under nitrogen and resuspended in 150 uL of 50 mM HEPES pH 8.0 buffer containing 100 mM NaCl and 0.2 mM EDTA. The sample was allowed to sit at rt for 15 min and then was sonicated 3×4 mins on ice with a Branson Sonicator using duty cycle 1. This preparation provides vesicles with a mole fraction of 0.05 for the FRET substrate.
The enzymatic assay was measured using white, opaque 96-well half area plates. Each well contained 60 uL of assay buffer (50 mM HEPES pH 8.0, 50 mM NaCl and 1 mM CaCl2) and 2 ul of a DMSO solution containing compound of interest. Conditioned media obtained from HT-1080 cells, which were transformed by RAGE technology (Athersys) to overexpress endogenous EL, was added and the reaction was allowed to incubate for 20 min at 37° C. with gentle agitation. The reaction was started by the addition of 20 uL of a 1:4 dilution of vesicles. The final total reaction volume was 100 uL. The reaction rates were measured on a Gemini plate reader with an excitation wavelength of 488 nm and a emission of 530 nm. Readings were taken every 20 seconds for 10 min with agitation between each reading. The slope of the linear portion of the readout was used to calculate the rate of the reaction.

Sequence of Endothelial lipase (EL) (Q9Y5X9 21-500): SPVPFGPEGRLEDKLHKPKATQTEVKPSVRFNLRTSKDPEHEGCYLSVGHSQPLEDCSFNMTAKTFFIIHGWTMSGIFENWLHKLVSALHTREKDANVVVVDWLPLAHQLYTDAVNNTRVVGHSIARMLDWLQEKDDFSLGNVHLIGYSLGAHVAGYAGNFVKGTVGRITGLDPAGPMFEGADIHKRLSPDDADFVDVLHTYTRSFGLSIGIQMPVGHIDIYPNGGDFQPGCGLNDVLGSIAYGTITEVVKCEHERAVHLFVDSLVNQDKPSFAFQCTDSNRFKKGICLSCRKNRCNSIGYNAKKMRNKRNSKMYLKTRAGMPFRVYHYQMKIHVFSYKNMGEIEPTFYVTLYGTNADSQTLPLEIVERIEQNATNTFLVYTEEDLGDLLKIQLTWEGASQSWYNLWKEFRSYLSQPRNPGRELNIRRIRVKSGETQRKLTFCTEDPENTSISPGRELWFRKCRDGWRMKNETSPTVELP

| Compound | IC50 [µM] |
| --- | --- |
| Cn1ccc(C(=O)NCc2ccc(Oc3ccc(F)cc3)cc2)c(O)c1=O [Example 16, N-(4-(4-fluorophenoxy)benzyl)-3-hydroxy-1-methyl-2-oxo-1,2-dihydropyridine-4-carboxamide] | 0.01 |
| Cn1ccc(C(=O)NCc2cccc(-c3ccccc3)c2)c(O)c1=O [Example 21, N-(biphenyl-3-ylmethyl)-3-hydroxy-1-methyl-2-oxo-1,2-dihydropyridine-4-carboxamide] | 0.0179 |
| Cn1ccc(C(=O)NCc2ccccc2N2CCCCC2)c(O)c1=O [Example 29, 3-hydroxy-1-methyl-2-oxo-N-(2-(piperidin-1-yl)benzyl)-1,2-dihydropyridine-4-carboxamide] | 6.54 |
| Cn1ccc(C(=O)NCc2ccccc2N2CCCC2)c(O)c1=O [Example 31, 3-hydroxy-1-methyl-2-oxo-N-(2-(pyrrolidin-1-yl)benzyl)-1,2-dihydropyridine-4-carboxamide] | 6.45 |
| Cn1c(C(F)(F)F)cc(C(=O)NCc2cccc(-c3ccc(Cl)cc3)c2)c(O)c1=O [Example 32, N-((4′-chlorobiphenyl-3-yl)methyl)-3-hydroxy-1-methyl-2-oxo-6-(trifluoromethyl)-1,2-dihydropyridine-4-carboxamide] | 0.0113 |
| O=C(NC1CCN(c2ccc(F)cc2)CC1)c1ccn(CC(F)(F)F)c(=O)c1O [Example 33, N-(1-(4-fluorophenyl)piperidin-4-yl)-3-hydroxy-2-oxo-1-(2,2,2-trifluoroethyl)-1,2-dihydropyridine-4-carboxamide] | 4.57 |
| O=C(N[C@H]1CC[C@@H](c2ccccc2)CC1)c1ccn(CCC(F)(F)F)c(=O)c1O [Example 37, 3-hydroxy-2-oxo-N-(cis-4-phenylcyclohexyl)-1-(3,3,3-trifluoropropyl)-1,2-dihydropyridine-4-carboxamide] | 0.352 |
| O=C(N[C@H]1CC[C@@H](c2ccccc2)CC1)c1ccn(CCCC(F)(F)F)c(=O)c1O [Example 39, 3-hydroxy-2-oxo-N-(cis-4-phenylcyclohexyl)-1-(4,4,4-trifluorobutyl)-1,2-dihydropyridine-4-carboxamide] | 0.692 |
| O=C(NCc1ccccc1-c1ccc(F)cc1)c1ccn(CC(F)(F)F)c(=O)c1O [Example 41, N-((4′-fluorobiphenyl-2-yl)methyl)-3-hydroxy-2-oxo-1-(2,2,2-trifluoroethyl)-1,2-dihydropyridine-4-] | 0.0111 |
| Cn1c(Cl)cc(C(=O)NC2CCC(c3ccccc3)CC2)c(O)c1=O (stereo not shown) [Example 44, 6-chloro-3-hydroxy-1-methyl-2-oxo-N-(4-phenylcyclohexyl)-1,2-dihydropyridine-4-carboxamide] | 0.475 |
